The numbers were not newly measured in article PMC9851200, “Multiparameter phenotypic screening for endogenous TFEB and TFE3 translocation identifies novel chemical series modulating lysosome function” (Autophagy, 2022), which cites them from elsewhere.

Common to all, as to parameters: method as in original PKIS2 published data
The target of series [1] is kinases (KINOMEscan panel) (Homo sapiens, UniProt P31751). The note with it: Published KINOMEscan; ref original PKIS2 published data; cited from earlier work.
kinases (KINOMEscan panel) (Homo sapiens, UniProt P31751), sequence (P31751 whole entry): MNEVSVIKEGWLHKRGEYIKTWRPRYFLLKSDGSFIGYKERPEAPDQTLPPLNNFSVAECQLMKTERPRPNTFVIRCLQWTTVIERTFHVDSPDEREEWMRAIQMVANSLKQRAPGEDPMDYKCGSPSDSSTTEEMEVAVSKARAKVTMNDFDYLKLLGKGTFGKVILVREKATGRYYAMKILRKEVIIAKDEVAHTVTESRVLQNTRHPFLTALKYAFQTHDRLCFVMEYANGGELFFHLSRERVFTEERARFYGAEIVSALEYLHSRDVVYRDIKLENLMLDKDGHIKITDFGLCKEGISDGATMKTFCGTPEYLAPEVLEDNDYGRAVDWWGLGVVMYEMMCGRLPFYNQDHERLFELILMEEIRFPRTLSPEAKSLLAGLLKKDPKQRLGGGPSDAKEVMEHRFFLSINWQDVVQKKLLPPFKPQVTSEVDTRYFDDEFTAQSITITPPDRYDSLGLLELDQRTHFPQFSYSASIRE
For series [2], the target named is T1, kinases (KINOMEscan panel) (Homo sapiens, UniProt P29322).
T1 sequence (P29322 28-1005): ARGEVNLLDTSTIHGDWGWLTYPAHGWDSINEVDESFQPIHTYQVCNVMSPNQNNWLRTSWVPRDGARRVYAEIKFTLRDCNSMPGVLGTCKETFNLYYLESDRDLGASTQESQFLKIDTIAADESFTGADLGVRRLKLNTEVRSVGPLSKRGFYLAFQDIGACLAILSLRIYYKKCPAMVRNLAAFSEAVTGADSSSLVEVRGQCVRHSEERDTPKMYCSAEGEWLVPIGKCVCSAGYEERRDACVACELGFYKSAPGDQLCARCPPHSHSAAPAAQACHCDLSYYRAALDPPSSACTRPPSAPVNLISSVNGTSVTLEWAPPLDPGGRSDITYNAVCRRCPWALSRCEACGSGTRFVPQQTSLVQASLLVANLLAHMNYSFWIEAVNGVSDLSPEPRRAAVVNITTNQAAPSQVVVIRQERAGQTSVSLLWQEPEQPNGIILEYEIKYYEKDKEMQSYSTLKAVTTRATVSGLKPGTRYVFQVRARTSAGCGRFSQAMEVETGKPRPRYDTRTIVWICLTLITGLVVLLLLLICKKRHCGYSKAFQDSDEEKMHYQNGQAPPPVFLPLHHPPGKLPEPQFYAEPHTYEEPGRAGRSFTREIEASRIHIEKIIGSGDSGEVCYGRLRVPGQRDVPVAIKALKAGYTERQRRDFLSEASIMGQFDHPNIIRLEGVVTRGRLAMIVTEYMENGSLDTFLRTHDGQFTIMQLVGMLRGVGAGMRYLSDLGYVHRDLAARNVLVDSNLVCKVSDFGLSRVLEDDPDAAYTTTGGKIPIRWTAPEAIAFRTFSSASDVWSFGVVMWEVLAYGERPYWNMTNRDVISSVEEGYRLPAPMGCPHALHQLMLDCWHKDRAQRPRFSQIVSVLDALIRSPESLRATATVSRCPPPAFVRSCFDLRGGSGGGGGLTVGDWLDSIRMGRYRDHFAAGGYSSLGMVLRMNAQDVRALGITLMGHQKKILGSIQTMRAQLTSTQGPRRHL
The note with it: kinase EPHA8; Published KINOMEscan; ref original PKIS2 published data; cited from earlier work.

Series [3] deals with T2, kinases (KINOMEscan panel) (Homo sapiens, UniProt P30530).
T2 sequence (P30530 26-894): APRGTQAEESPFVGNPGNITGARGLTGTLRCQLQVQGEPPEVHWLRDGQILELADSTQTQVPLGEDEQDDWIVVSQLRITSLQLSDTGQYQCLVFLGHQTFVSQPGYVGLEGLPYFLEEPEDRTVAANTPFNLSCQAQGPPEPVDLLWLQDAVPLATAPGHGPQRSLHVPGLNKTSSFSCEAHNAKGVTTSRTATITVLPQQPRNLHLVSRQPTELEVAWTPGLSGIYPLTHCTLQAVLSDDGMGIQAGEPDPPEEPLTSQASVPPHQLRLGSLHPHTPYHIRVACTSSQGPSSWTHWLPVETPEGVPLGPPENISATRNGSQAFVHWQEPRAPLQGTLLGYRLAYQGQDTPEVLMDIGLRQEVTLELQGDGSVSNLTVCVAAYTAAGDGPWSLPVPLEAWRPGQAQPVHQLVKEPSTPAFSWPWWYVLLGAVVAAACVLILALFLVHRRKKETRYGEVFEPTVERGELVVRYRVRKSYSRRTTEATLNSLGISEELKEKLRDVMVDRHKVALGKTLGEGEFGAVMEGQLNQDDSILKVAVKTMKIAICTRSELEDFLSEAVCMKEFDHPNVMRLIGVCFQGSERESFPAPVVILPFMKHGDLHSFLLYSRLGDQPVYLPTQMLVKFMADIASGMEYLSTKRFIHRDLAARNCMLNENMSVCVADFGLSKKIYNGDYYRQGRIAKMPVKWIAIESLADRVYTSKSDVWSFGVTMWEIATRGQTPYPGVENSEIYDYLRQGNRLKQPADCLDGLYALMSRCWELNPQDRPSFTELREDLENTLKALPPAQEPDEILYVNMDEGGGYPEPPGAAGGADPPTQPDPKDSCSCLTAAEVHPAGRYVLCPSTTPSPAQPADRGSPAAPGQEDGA
The note with it: AXL; Published KINOMEscan; ref original PKIS2 published data; cited from earlier work.

The target of series [4] is T3, kinases (KINOMEscan panel) (Homo sapiens, UniProt O14730).
T3 sequence (O14730 1-519): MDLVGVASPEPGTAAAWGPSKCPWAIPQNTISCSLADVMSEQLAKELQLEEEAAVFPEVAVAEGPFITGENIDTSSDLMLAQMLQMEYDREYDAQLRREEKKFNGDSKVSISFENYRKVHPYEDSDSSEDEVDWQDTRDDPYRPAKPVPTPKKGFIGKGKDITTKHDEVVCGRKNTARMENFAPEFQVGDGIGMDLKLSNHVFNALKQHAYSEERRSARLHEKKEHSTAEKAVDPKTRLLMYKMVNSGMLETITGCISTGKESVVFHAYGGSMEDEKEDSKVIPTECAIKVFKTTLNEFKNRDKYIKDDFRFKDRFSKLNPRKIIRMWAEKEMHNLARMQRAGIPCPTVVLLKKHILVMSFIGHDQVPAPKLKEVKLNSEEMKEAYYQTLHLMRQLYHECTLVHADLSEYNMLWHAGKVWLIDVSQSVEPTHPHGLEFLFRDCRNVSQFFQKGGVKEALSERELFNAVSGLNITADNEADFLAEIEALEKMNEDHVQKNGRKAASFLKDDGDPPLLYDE
The note with it: RIOK3; Published KINOMEscan; ref original PKIS2 published data; cited from earlier work.

As for `Cc1cccc(-c2nc(Nc3ccncc3)c3ccccc3n2)n1` [NK215], the “KINOMEscan AKT2” value in series [1] is given as 0. The “KINOMEscan EPHA8” value in series [2] is reported as 7. In addition, the “KINOMEscan AXL” value in series [3] is reported as 7. Also, in series [4], the “KINOMEscan RIOK3” value was 35.
